# Measurements published in ChEMBL document CHEMBL4219183, “Novel purine benzimidazoles as antimicrobial agents by regulating ROS generation and targeting clinically resistant Staphylococcus aureus DNA groove” (Bioorg Med Chem Lett, 2018).
# What was measured:
# Assay type in all cases: functional
# Candida albicans [1] = experiment: Antifungal activity against Candida albicans ATCC 90023 after 24 hrs by two fold serial dilution method; settings: ATCC 90023, 24 h
# Pseudomonas aeruginosa [2] = experiment: Antibacterial activity against Pseudomonas aeruginosa after 24 hrs by two fold serial dilution method
# Candida parapsilosis = experiment: Antifungal activity against Candida parapsilosis ATCC 22019 after 24 hrs by two fold serial dilution method; settings: ATCC 22019, 24 h
# Staphylococcus aureus [3] = experiment: Antibacterial activity against methicillin-resistant Staphylococcus aureus N315 after 24 hrs by two fold serial dilution method; settings: N315, 24 h
# Klebsiella pneumoniae = experiment: Antibacterial activity against Klebsiella pneumoniae after 24 hrs by two fold serial dilution method
# Acinetobacter baumannii = experiment: Antibacterial activity against Acinetobacter baumannii after 24 hrs by two fold serial dilution method
# Staphylococcus aureus [4] = experiment: Antibacterial activity against Staphylococcus aureus ATCC 25923 after 24 hrs by two fold serial dilution method; settings: ATCC 25923, 24 h
# Escherichia coli [5] = experiment: Antibacterial activity against Escherichia coli ATCC 25922 after 24 hrs by two fold serial dilution method; settings: ATCC 25922, 24 h
# Pseudomonas aeruginosa [6] = experiment: Antibacterial activity against Pseudomonas aeruginosa ATCC 27853 after 24 hrs by two fold serial dilution method; settings: ATCC 27853, 24 h
# Candida albicans [7] = experiment: Antifungal activity against Candida albicans after 24 hrs by two fold serial dilution method
# Staphylococcus aureus [8] = experiment: Antibacterial activity against Staphylococcus aureus ATCC 29213 after 24 hrs by two fold serial dilution method; settings: ATCC 29213, 24 h
# Escherichia coli [9] = experiment: Antibacterial activity against Escherichia coli after 24 hrs by two fold serial dilution method
# Candida tropicalis = experiment: Antifungal activity against Candida tropicalis after 24 hrs by two fold serial dilution method
# Staphylococcus aureus [10] = experiment: Antibacterial activity against Staphylococcus aureus after 24 hrs by two fold serial dilution method
# Enterococcus faecalis = experiment: Antibacterial activity against Enterococcus faecalis after 24 hrs by two fold serial dilution method
# Aspergillus fumigatus = experiment: Antifungal activity against Aspergillus fumigatus after 24 hrs by two fold serial dilution method
compound,measurement,setting,value
C=CCn1c(Cn2cnc3c(N4CCOCC4)ncnc32)nc2ccccc21,MIC80,Candida albicans [1],128 mg/L
same,MIC,Pseudomonas aeruginosa [2],256 mg/L
same,MIC80,Candida parapsilosis,32 mg/L
same,MIC,Staphylococcus aureus [3],512 mg/L
same,MIC,Klebsiella pneumoniae,128 mg/L
same,MIC,Acinetobacter baumannii,128 mg/L
same,MIC,Staphylococcus aureus [4],256 mg/L
same,MIC,Escherichia coli [5],256 mg/L
same,MIC,Pseudomonas aeruginosa [6],128 mg/L
same,MIC80,Candida albicans [7],512 mg/L
same,MIC,Staphylococcus aureus [8],128 mg/L
same,MIC,Escherichia coli [9],256 mg/L
same,MIC80,Candida tropicalis,256 mg/L
same,MIC,Staphylococcus aureus [10],256 mg/L
same,MIC,Enterococcus faecalis,128 mg/L
same,MIC80,Aspergillus fumigatus,128 mg/L
CCCCn1c(Cn2cnc3c(N4CCOCC4)ncnc32)nc2ccccc21,MIC80,Candida albicans [1],128 mg/L
same,MIC,Pseudomonas aeruginosa [2],256 mg/L
same,MIC80,Candida parapsilosis,256 mg/L
same,MIC,Staphylococcus aureus [3],512 mg/L
same,MIC,Klebsiella pneumoniae,256 mg/L
same,MIC,Acinetobacter baumannii,256 mg/L
same,MIC,Staphylococcus aureus [4],256 mg/L
same,MIC,Escherichia coli [5],128 mg/L
same,MIC,Pseudomonas aeruginosa [6],128 mg/L
same,MIC80,Candida albicans [7],256 mg/L
same,MIC,Staphylococcus aureus [8],128 mg/L
same,MIC,Escherichia coli [9],64 mg/L
same,MIC80,Candida tropicalis,128 mg/L
same,MIC,Staphylococcus aureus [10],256 mg/L
same,MIC,Enterococcus faecalis,256 mg/L
same,MIC80,Aspergillus fumigatus,256 mg/L
CCCCCCn1c(Cn2cnc3c(N4CCCCC4)ncnc32)nc2ccccc21,MIC80,Candida albicans [1],32 mg/L
same,MIC,Pseudomonas aeruginosa [2],128 mg/L
same,MIC80,Candida parapsilosis,64 mg/L
same,MIC,Staphylococcus aureus [3],64 mg/L
same,MIC,Klebsiella pneumoniae,64 mg/L
same,MIC,Acinetobacter baumannii,64 mg/L
same,MIC,Staphylococcus aureus [4],64 mg/L
same,MIC,Escherichia coli [5],16 mg/L
same,MIC,Pseudomonas aeruginosa [6],128 mg/L
same,MIC80,Candida albicans [7],64 mg/L
same,MIC,Staphylococcus aureus [8],512 mg/L
same,MIC,Escherichia coli [9],256 mg/L
same,MIC80,Candida tropicalis,64 mg/L
same,MIC,Staphylococcus aureus [10],16 mg/L
same,MIC,Enterococcus faecalis,128 mg/L
same,MIC80,Aspergillus fumigatus,128 mg/L
CCCCCCn1c(Cn2cnc3c(N4CCCC4)ncnc32)nc2ccccc21,MIC80,Candida albicans [1],32 mg/L
same,MIC,Pseudomonas aeruginosa [2],128 mg/L
same,MIC80,Candida parapsilosis,32 mg/L
same,MIC,Staphylococcus aureus [3],64 mg/L
same,MIC,Klebsiella pneumoniae,128 mg/L
same,MIC,Acinetobacter baumannii,64 mg/L
same,MIC,Staphylococcus aureus [4],64 mg/L
same,MIC,Escherichia coli [5],16 mg/L
same,MIC,Pseudomonas aeruginosa [6],256 mg/L
same,MIC80,Candida albicans [7],64 mg/L
same,MIC,Staphylococcus aureus [8],512 mg/L
same,MIC,Escherichia coli [9],256 mg/L
same,MIC80,Candida tropicalis,128 mg/L
same,MIC,Staphylococcus aureus [10],32 mg/L
same,MIC,Enterococcus faecalis,256 mg/L
same,MIC80,Aspergillus fumigatus,128 mg/L
CCCCCCCCCCCCCCCCn1c(Cn2cnc3c(N4CCOCC4)ncnc32)nc2ccccc21,MIC80,Candida albicans [1],512 mg/L
same,MIC,Pseudomonas aeruginosa [2],512 mg/L
same,MIC80,Candida parapsilosis,128 mg/L
same,MIC,Staphylococcus aureus [3],512 mg/L
same,MIC,Klebsiella pneumoniae,128 mg/L
same,MIC,Acinetobacter baumannii,256 mg/L
same,MIC,Staphylococcus aureus [4],256 mg/L
same,MIC,Escherichia coli [5],256 mg/L
same,MIC,Pseudomonas aeruginosa [6],256 mg/L
same,MIC80,Candida albicans [7],128 mg/L
same,MIC,Staphylococcus aureus [8],256 mg/L
same,MIC,Escherichia coli [9],512 mg/L
same,MIC80,Candida tropicalis,128 mg/L
same,MIC,Staphylococcus aureus [10],64 mg/L
same,MIC,Enterococcus faecalis,32 mg/L
same,MIC80,Aspergillus fumigatus,256 mg/L
CCCCCCCCCCCCn1c(Cn2cnc3c(N4CCOCC4)ncnc32)nc2ccccc21,MIC80,Candida albicans [1],64 mg/L
same,MIC,Pseudomonas aeruginosa [2],128 mg/L
same,MIC80,Candida parapsilosis,256 mg/L
same,MIC,Staphylococcus aureus [3],512 mg/L
same,MIC,Klebsiella pneumoniae,256 mg/L
same,MIC,Acinetobacter baumannii,512 mg/L
same,MIC,Staphylococcus aureus [4],512 mg/L
same,MIC,Escherichia coli [5],256 mg/L
same,MIC,Pseudomonas aeruginosa [6],128 mg/L
same,MIC80,Candida albicans [7],256 mg/L
same,MIC,Staphylococcus aureus [8],512 mg/L
same,MIC,Escherichia coli [9],32 mg/L
same,MIC80,Candida tropicalis,64 mg/L
same,MIC,Staphylococcus aureus [10],16 mg/L
same,MIC,Enterococcus faecalis,128 mg/L
same,MIC80,Aspergillus fumigatus,256 mg/L
Fc1cccc(Cn2c(Cn3cnc4c(N5CCOCC5)ncnc43)nc3ccccc32)c1,MIC80,Candida albicans [1],32 mg/L
same,MIC,Pseudomonas aeruginosa [2],256 mg/L
same,MIC80,Candida parapsilosis,128 mg/L
same,MIC,Staphylococcus aureus [3],512 mg/L
same,MIC,Klebsiella pneumoniae,16 mg/L
same,MIC,Acinetobacter baumannii,256 mg/L
same,MIC,Staphylococcus aureus [4],32 mg/L
same,MIC,Escherichia coli [5],256 mg/L
same,MIC,Pseudomonas aeruginosa [6],128 mg/L
same,MIC80,Candida albicans [7],256 mg/L
same,MIC,Staphylococcus aureus [8],64 mg/L
same,MIC,Escherichia coli [9],256 mg/L
same,MIC80,Candida tropicalis,128 mg/L
same,MIC,Staphylococcus aureus [10],256 mg/L
same,MIC,Enterococcus faecalis,128 mg/L
same,MIC80,Aspergillus fumigatus,256 mg/L
Clc1ccccc1Cn1c(Cn2cnc3c(N4CCOCC4)ncnc32)nc2ccccc21,MIC80,Candida albicans [1],256 mg/L
same,MIC,Pseudomonas aeruginosa [2],128 mg/L
same,MIC80,Candida parapsilosis,256 mg/L
same,MIC,Staphylococcus aureus [3],512 mg/L
same,MIC,Klebsiella pneumoniae,64 mg/L
same,MIC,Acinetobacter baumannii,256 mg/L
same,MIC,Staphylococcus aureus [4],256 mg/L
same,MIC,Escherichia coli [5],256 mg/L
same,MIC,Pseudomonas aeruginosa [6],64 mg/L
same,MIC80,Candida albicans [7],256 mg/L
same,MIC,Staphylococcus aureus [8],32 mg/L
same,MIC,Escherichia coli [9],128 mg/L
same,MIC80,Candida tropicalis,256 mg/L
same,MIC,Staphylococcus aureus [10],256 mg/L
same,MIC,Enterococcus faecalis,256 mg/L
same,MIC80,Aspergillus fumigatus,256 mg/L
OC(Cn1cncn1)(Cn1cncn1)c1ccc(F)cc1F [FLUCONAZOLE],MIC80,Candida albicans [1],1 mg/L
same,MIC80,Candida parapsilosis,2 mg/L
same,MIC80,Candida albicans [7],64 mg/L
same,MIC80,Candida tropicalis,256 mg/L
same,MIC80,Aspergillus fumigatus,256 mg/L
c1nc(N2CCCCC2)c2nc[nH]c2n1,MIC80,Candida albicans [1],128 mg/L
same,MIC,Pseudomonas aeruginosa [2],256 mg/L
same,MIC80,Candida parapsilosis,512 mg/L
same,MIC,Staphylococcus aureus [3],512 mg/L
same,MIC,Klebsiella pneumoniae,256 mg/L
same,MIC,Acinetobacter baumannii,128 mg/L
same,MIC,Staphylococcus aureus [4],512 mg/L
same,MIC,Escherichia coli [5],256 mg/L
same,MIC,Pseudomonas aeruginosa [6],64 mg/L
same,MIC80,Candida albicans [7],128 mg/L
same,MIC,Staphylococcus aureus [8],512 mg/L
same,MIC,Escherichia coli [9],256 mg/L
same,MIC80,Candida tropicalis,256 mg/L
same,MIC,Staphylococcus aureus [10],32 mg/L
same,MIC,Enterococcus faecalis,256 mg/L
same,MIC80,Aspergillus fumigatus,64 mg/L
c1nc2nc[nH]c(N3CCCC3)c-2n1,MIC80,Candida albicans [1],256 mg/L
same,MIC,Pseudomonas aeruginosa [2],256 mg/L
same,MIC80,Candida parapsilosis,512 mg/L
same,MIC,Staphylococcus aureus [3],512 mg/L
same,MIC,Klebsiella pneumoniae,512 mg/L
same,MIC,Acinetobacter baumannii,256 mg/L
same,MIC,Staphylococcus aureus [4],512 mg/L
same,MIC,Escherichia coli [5],256 mg/L
same,MIC,Pseudomonas aeruginosa [6],128 mg/L
same,MIC80,Candida albicans [7],128 mg/L
same,MIC,Staphylococcus aureus [8],512 mg/L
same,MIC,Escherichia coli [9],256 mg/L
same,MIC80,Candida tropicalis,128 mg/L
same,MIC,Staphylococcus aureus [10],64 mg/L
same,MIC,Enterococcus faecalis,512 mg/L
same,MIC80,Aspergillus fumigatus,64 mg/L
